These results are taken from US20240180859A1, “COMPOSITIONS AND METHODS FOR IMMUNE-MEDIATED INFLAMMATORY DISEASES” (Thetis Pharmaceuticals LLC, priority 2022, published 2024).

The test system of data set [1] is polymorphonuclear leukocyte (PMN) recruitment. The settings on record: equimolar dose; cited from earlier work.
Data set [2] concerns CD4+ and CD8+ cells in the liver. The note with it: concanavalin A-induced murine model; cited from earlier work.
Another data set has as its system MC-38 cells. Briefly: MC38 model of colorectal cancer, subcutaneous tumors. Type of data set: in vivo, C57BL/6J male mice. The settings on record: 300 ug/kg, SC, P<0.05 vs placebo. As to the method:
A representative compound of Formula IV, bis RvE1 magnesium di-lysinate (Compound 1), was tested for efficacy in several preclinical mouse models including the Panc2-H7 model of pancreatic cancer, and the MC38 model of colorectal cancer. These models are well established, highly tumorigenic syngeneic models in which murine cancer cell lines are injected subcutaneously (SC) into the dorsum of C57BL/6J mice. If left untreated, these tumors grow rapidly and lead to death or euthanasia, per protocol. As detailed below in Examples 1-4 and the accompanying figures, bis RvE1 Mg-di-lysinate (Compound 1) was unexpectedly effective as an anti-cancer agent in each of these model systems when administered in a less than daily (LTD) dosing regimen. […] Without being bound by any theory, the surprising efficacy of LTD dosing of resolvins in the model systems described here may be the result of durable effects on the inflammatory phenotype of the tumor microenvironment including changes in immune cell phenotype, vascularization, stromal phenotype, and antigen presentation, as well as durable effects on the T-cell compartment such as T-cell priming and increased tumor-infiltrating lymphocytes. […]

The next data set relates to Panc2-H7 cells. Description: Panc2-H7 model of pancreatic cancer, subcutaneous tumors. Type of data set: in vivo, C57BL/6J male mice. The settings on record: SC. As to the method:
A representative compound of Formula IV, bis RvE1 magnesium di-lysinate (Compound 1), was tested for efficacy in several preclinical mouse models including the Panc2-H7 model of pancreatic cancer, and the MC38 model of colorectal cancer. These models are well established, highly tumorigenic syngeneic models in which murine cancer cell lines are injected subcutaneously (SC) into the dorsum of C57BL/6J mice. If left untreated, these tumors grow rapidly and lead to death or euthanasia, per protocol. As detailed below in Examples 1-4 and the accompanying figures, bis RvE1 Mg-di-lysinate (Compound 1) was unexpectedly effective as an anti-cancer agent in each of these model systems when administered in a less than daily (LTD) dosing regimen. […] Without being bound by any theory, the surprising efficacy of LTD dosing of resolvins in the model systems described here may be the result of durable effects on the inflammatory phenotype of the tumor microenvironment including changes in immune cell phenotype, vascularization, stromal phenotype, and antigen presentation, as well as durable effects on the T-cell compartment such as T-cell priming and increased tumor-infiltrating lymphocytes.
Based on the previous findings in the MC38 colorectal cancer model with less than daily (LTD) dosing, a study in the Panc2-H7 model was conducted to assess the efficacy of LTD dosing of bis RvE1 Mg-di-lysinate in a different tumor model. A total of forty (40) C57BL/6J male mice were injected subcutaneously with 1×10e6 living Panc2-H7 cells. Once tumors reached 160-320 mm^3 in size, the mice were randomized (n=8 per group) to treatment with vehicle or SC injection with bis RvE1 Mg-di-lysinate at 30 ug/kg and 300 ug/kg (QD, Q7D).

A short description of data set [3]: Subcutaneous PK study of RvE1-Mg-Lys. Type of data set: in vivo, C57BL/6J mice. The settings on record: 100 or 300 ug/kg subcutaneous injection; baseline to 8 hours. On the procedure: (§1) In the subcutaneous PK study, sixty-nine (69) C57BL/6J mice were administered 100 or 300 ug/kg doses of RvE1-Mg-Lys via subcutaneous injection. Mice were sacrificed and plasma was drawn at the following timepoints: baseline, 5, 15, 30 min, 1, 2, 4 and 8 hours (n=5 mice per timepoint). In the IV and oral PK studies, one-hundred eighty (180) Balb/c mice were administered RvE1-Na at 1 or 10 mg/kg via subcutaneous injection, IV injection, oral gavage (n=6 mice per timepoint). Plasma and lung tissue were assayed at the following timepoints: 0.25, 0.5, 1, 2, 6, 10 and 24 hours. […] Without being bound by any theory, the surprising efficacy of LTD dosing of resolvins in the cancer model systems described here may be the result of durable effects on the tumor microenvironment including changes in immune cell phenotype, vascularization, stromal phenotype, and antigen presentation, as well as durable effects on the T-cell compartment such as T-cell priming and increased tumor-infiltrating lymphocytes.

The test system of the next data set is subcutaneous KPC tumors. Briefly: RNAseq cell enrichment analysis of tumor samples. Type of data set: in vivo, mice. The note with it: Q6D treatment, Day 26, compared to placebo. On the procedure:
RNAseq analysis was performed on tumor samples from mice with subcutaneous KPC tumors sacrificed on Day 26 following treatment (Q6D) with bis RvE1 Mg-di-lysinate (Compound 1) compared to placebo. […] Darker color indicates increased gene expression, for various immune cells and other cells, as listed across the top of the heatmap. The boxed cells shown in FIG. 4 indicate an increase in markers of monocytes and DC cell subset (cDCs, pDCs, and iDCs) and markers of NK, CD8+ T cells, Th1 cells, and memory T cells (CD8+ and CD4+) with Compound 1 treatment. […] Namely, these unexpected results may be due to durable effects on the tumor microenvironment including changes in immune cell phenotype and the T-cell compartment such as T-cell priming and increased tumor-infiltrating lymphocytes.

Data set [4] can be described thus: PK studies of RvE1-Na (subcutaneous, IV, oral), plasma and lung tissue. It is filed as in vivo, Balb/c mice. The note with it: 0.25-24 hours. On the procedure: as §1

On to `CCC(=O)/C=C/C=C\C[C@@H](O)/C=C/C=C/C=C\[C@@H](O)CCCC(=O)O` [Compound 18-oxo-RvE1, 18-oxo-RvE1], for which the “activity in zymosan-induced peritonitis (PMN recruitment)” value in data set [1] was “devoid of activity”.
Turning to `CC/C=C\C[C@H](O)/C=C/C=C\C=C\C=C\[C@@H](O)[C@@H](O)C/C=C\CCC(=O)O` [RvD1, 7S,8R,17S-trihydroxy-4Z,9E,11E,13Z,15E,19Z-docosahexaenoic acid], the “levels of CD4+ and CD8+ cells in the liver” value in data set [2] was “markedly downregulated”.
With `CC[C@@H](O)/C=C/C=C\C[C@@H](O)/C=C/C=C/C=C\[C@@H](O)CCCC(=O)O` [Compound 1, bis RvE1 Mg-di-lysinate], the “tumor volume (Day 15 vs Day 0), efficacy as a single agent vs placebo” value in the data set with MC-38 cells (Q3D) and in the data set on MC-38 cells (QD) was “effective as a single agent” each time. Also, the “tumor volume (Day 20 vs Day 0), inhibition relative to placebo control” value in the data set with Panc2-H7 cells (30 ug/kg, Q7D) is reported as “demonstrated inhibition relative to placebo control”; in the data set on Panc2-H7 cells (30 ug/kg, QD) it was “demonstrated inhibition relative to placebo control”; in the data set with Panc2-H7 cells (300 ug/kg, Q7D, P<0.05 vs placebo control), “greatest inhibition”; with Panc2-H7 cells (300 ug/kg, QD), “demonstrated inhibition relative to placebo control”. The “plasma levels of RvE1 over time” value in data set [3] is given as “rapid depletion”. The “markers of NK, CD8+ T cells, Th1 cells, and memory T cells (CD8+ and CD4+), gene expression” value in the data set on subcutaneous KPC tumors is reported as “increase”. Further, the “markers of monocytes and DC cell subset (cDCs, pDCs, and iDCs), gene expression” value in the data set with subcutaneous KPC tumors was “increase”.
`CC[C@@H](O)/C=C/C=C\C[C@@H](O)/C=C/C=C/C=C\[C@@H](O)CCCC(=O)[O-].[Na+]` [RvE1-Na]: the “plasma and lung tissue levels of RvE1 over time” value in data set [4] (1 or 10 mg/kg IV injection), in data set [4] (1 or 10 mg/kg oral gavage) and in data set [4] (1 or 10 mg/kg subcutaneous injection) was “rapid depletion” throughout.
For the molecule `CC[C@@H](O)/C=C/C=C\C[C@@H](O)/C=C/C=C/C=C\[C@@H](O)CCCC(=O)O` [RvE1, 5S,12R,18R-trihydroxy-6Z,8E,10E,14Z,16E-eicosapentaenoic acid], the “activity in zymosan-induced peritonitis (PMN recruitment)” value in data set [1] is given as “potently reduced”. For the same molecule, in data set [2], the “levels of CD4+ and CD8+ cells in the liver” value was “markedly downregulated”.
